Tests used:
[1] = test system: ethylene-induced epinasty in Patio variety tomato plants; assay: Tomato epinasty test, spray application treatment; type: in vivo; conditions: for Spray @10 ppm: visual rating of protection against ethylene-induced epinasty: spray 10 ppm in 10% acetone/90% water, 0.05% Silwett L-77, 10 ppm ethylene, scale 0 to 10 (10 = complete protection); for Spray @ 1000 ppm: rating of protection against epinasty: spray 1000 ppm (in cell), scale 0 to 10
Procedure: (§1) Objective: The test procedure is designed to determine the ability of an experimental compound to block the epinastic growth response induced by ethylene in tomato plants when the experimental compound is administered either as a volatile gas or as a component of a spray solution.
(§2) Treatment chambers are of an appropriate size for the test plants and are airtight. Each is fitted with a reusable septum to be used for injection of ethylene. Test plants are Patio variety tomato seedlings planted two plants per three inch square plastic pot.
Spray application treatment entails using a DeVilbiss atomizer to completely cover all foliage and stems of two pots of Patio var. tomato plants with the appropriate amount of experimental compound dissolved in 10% acetone/90% water with 0.05% Silwett L-77 surfactant. Plants are air-dried in a drying hood for four hours then transferred to a 4.8 L polystyrene chamber which is sealed.
Ethylene gas equal to 10 ppm v/v final concentration is injected into the sealed chamber. Sixteen hours later the chambers are opened in an exhaust hood, allowed to air and the plants scored visually for the degree of protection against ethylene-induced epinasty conferred by the experimental compound when compared to ethylene treated and untreated controls on a scale of 0 to 10. A rating of 10 means complete protection. A rating of 0 means no protection from the effects of ethylene.

[2] = test system: ethylene-induced epinasty in Patio variety tomato plants; assay: Tomato epinasty test, volatile gas treatment; type: in vivo; conditions: for Gas @ 10 ppm: visual rating of protection against ethylene-induced epinasty: gas 10 ppm v/v, 10 ppm ethylene, scale 0 to 10 (10 = complete protection); for Gas @ 1000 ppm: visual rating of protection against ethylene-induced epinasty: gas 1000 ppm v/v, 10 ppm ethylene after 4 h, scored 16 h later, scale 0 (no protection) to 10 (complete protection); for Gas @ 343.4 ppm: rating of protection against epinasty: gas 343.4 ppm (in cell)
Procedure: as §1, §2
Volatile gas treatment entails placing two pots of Patio var. tomatoes into a polystyrene 4.8 L volume treatment chamber along with one-half (upper or lower section) of a 50×9 mm plastic Petri dish containing a Gelman filter pad. The appropriate amount of experimental compound, dissolved in 1.0 ml acetone, is pipetted onto the filter pad and the chamber immediately sealed. Four hours later ethylene gas equal to 10 ppm v/v final concentration is injected into the sealed chamber. Sixteen hours later the chambers are opened in an exhaust hood, allowed to air and the plants scored visually for the degree of protection against ethylene-induced epinasty conferred by the experimental compound when compared to ethylene treated and untreated controls on a scale of 0 to 10. A rating of 10 means complete protection. A rating of 0 means no protection from the effects of ethylene. Gas treatment concentrations are volume/volume.

In the case of `CS(=O)(=O)OCCC1=CC1` [Compound 68, 1-(2-Methanesulfonyloxyethyl)-cyclopropene], the “Spray @10 ppm: visual rating of protection against ethylene-induced epinasty” value (shortened to “Spray @10 ppm: visual rating”) [1] is reported as 5, the “Gas @ 10 ppm: visual rating of protection against ethylene-induced epinasty” value (shortened to “Gas @ 10 ppm: visual rating”) [2] is reported as 3 and the “Gas @ 1000 ppm: visual rating of protection against ethylene-induced epinasty” value (from here on “Gas @ 1000 ppm: visual rating”) [2] is reported as 10.

For `BrC1=C(Cc2ccccc2)C1` [Compound 45, 1-Benzyl-2-bromocyclopropene], the “Spray @10 ppm: visual rating” value [1] was 0, the “Gas @ 10 ppm: visual rating” value [2] was 5 and the “Gas @ 1000 ppm: visual rating” value [2] was 10.

`C[Si](C)(C)CC1=CC1` [Compound 64, 1-Trimethylsilylmethylcyclopropene] was tested, and the “Spray @10 ppm: visual rating” value [1] was 9 and the “Gas @ 10 ppm: visual rating” value [2] was 10.

In the case of `CC(C)(C)[Si](C)(C)OCCCCCCCC1=CC1` [Compound 82, 1-(7-T-butyldimethylsilyloxyheptyl)-cyclopropene], the “Spray @10 ppm: visual rating” value [1] is reported as 0, the “Gas @ 10 ppm: visual rating” value [2] is reported as 3 and the “Gas @ 1000 ppm: visual rating” value [2] is reported as 10.

For `CC(C)(C)OC(=O)N1CC(C(=O)OCCC2=CC2)CS1` (centres unmarked) [Compound 52], the “Spray @10 ppm: visual rating” value [1] was 2, the “Spray @ 1000 ppm: rating of protection against epinasty” value [1] was 10 and the “Gas @ 10 ppm: visual rating” value [2] was 0. The “Gas @ 1000 ppm: visual rating” value [2] was 3.

In the case of `C1=C(CCCCCCCN(c2ccccc2)c2ccccc2)C1` [Compound 13, 7-(diphenylamino)-1-heptylcyclopropene], the “Spray @10 ppm: visual rating” value [1] is reported as 10 and the “Gas @ 10 ppm: visual rating” value [2] is reported as 0.

In the case of `CCC1=C(n2nc(-c3ccc(Cl)cc3)ccc2=O)C1` [Compound 60, 1-Ethyl-2-(3-(4-chlorophenol)-pyridaz-6-on-1-yl)-cyclopropene], the “Spray @10 ppm: visual rating” value [1] is reported as 0, the “Gas @ 10 ppm: visual rating” value [2] is reported as 4 and the “Gas @ 1000 ppm: visual rating” value [2] is reported as 0.

For `CC(C)(C1=CC1)c1ccccc1` [Compound 5, 1-(α,α-dimethylbenzyl)-cyclopropene], the “Spray @10 ppm: visual rating” value [1] was 2 and the “Gas @ 10 ppm: visual rating” value [2] was 5.

`O=C(OCCC1=CC1)c1cc2ccccc2o1` [Compound 49] was tested, and the “Spray @10 ppm: visual rating” value [1] was 0, the “Gas @ 10 ppm: visual rating” value [2] was 0 and the “Gas @ 343.4 ppm: rating of protection against epinasty” value ([2]; scale 0 to 10) was 9(@343.4.

In the case of `O=C(OCCCC1=CC1)c1cnccn1` [Compound 61], the “Spray @10 ppm: visual rating” value [1] is reported as 0, the “Gas @ 10 ppm: visual rating” value [2] is reported as 0 and the “Gas @ 438 ppm: rating of protection against epinasty” value ([2]; gas 438 ppm (in cell), scale 0 to 10) is reported as 10(@438.

In the case of `O=C(O)CC1(c2ccccc2)C(c2ccccc2)=C1c1ccccc1` [Compound 40, 3-Hydroxycarbonylmethyl-1,2,3-triphenylcyclopropene], the “Spray @10 ppm: visual rating” value [1] is reported as 0 and the “Gas @ 10 ppm: visual rating” value [2] is reported as 7.

For `Cc1nnsc1C(=O)OCCC1=CC1` [Compound 51], the “Spray @10 ppm: visual rating” value [1] was 0, the “Spray @ 1000 ppm: rating of protection against epinasty” value [1] was 8 and the “Gas @ 10 ppm: visual rating” value [2] was 0. For the same compound, the “Gas @ 1000 ppm: visual rating” value [2] was 3.

With `Cc1cc(C)nc(CCC2=CC2)n1` [Compound 42] the “Spray @10 ppm: visual rating” value [1] was 2 and the “Gas @ 343.4 ppm: rating of protection against epinasty” value ([2]; scale 0 to 10) was 3(@ 343.4.

`Cc1cccc(CC2=CC2)c1` [Compound 29] was tested, and the “Spray @10 ppm: visual rating” value [1] was 10 and the “Gas @ 10 ppm: visual rating” value [2] was 10.

For `C1=C(CCCc2ccccc2)C1` [Compound 25], the “Spray @10 ppm: visual rating” value [1] was 10 and the “Gas @ 10 ppm: visual rating” value [2] was 10.

With `CC[Si](CC)(CC)CC1=CC1` [Compound 63, 1-Triethylsilylmethylcyclopropene] the “Spray @10 ppm: visual rating” value [1] was 10 and the “Gas @ 10 ppm: visual rating” value [2] was 10.

With `C1=C(CCCSc2ccccn2)C1` [Compound 55, 1-(2-Pyridylthiopropyl)-cyclopropene] the “Spray @10 ppm: visual rating” value [1] was 3 and the “Gas @ 800 ppm: rating of protection against epinasty” value ([2]; gas 800 ppm (in cell), scale 0 to 10) was 10(@800.

With `C1=C(Cc2ccccc2)C1` [Compound 17] the “Spray @10 ppm: visual rating” value [1] was 2 and the “Gas @ 10 ppm: visual rating” value [2] was 9.

With `CCC1=C(COS(C)(=O)=O)C1` [Compound 83, 1-(Methanesulfonyloxymethyl)-2-ethylcyclopropene] the “Spray @10 ppm: visual rating” value [1] was 2, the “Gas @ 10 ppm: visual rating” value [2] was 4 and the “Gas @ 1000 ppm: visual rating” value [2] was 10.

`Cc1cc(C)c(CC2=CC2)c(C)c1` [Compound 30] was tested, and the “Spray @10 ppm: visual rating” value [1] was 0, the “Gas @ 10 ppm: visual rating” value [2] was 3 and the “Gas @ 1000 ppm: visual rating” value [2] was 8.

For `CCCCCC1(C)C=C1` [Compound 72, 3-Methyl-3-pentyl-cyclopropene], the “Spray @10 ppm: visual rating” value [1] was 2, the “Gas @ 10 ppm: visual rating” value [2] was 0 and the “Gas @ 1000 ppm: visual rating” value [2] was 9.

`CCCCCCCCC1=C([Si](C)(C)C)C1` [Compound 67, 2-Octyl-1-trimethylsilylcyclopropene] was tested, and the “Spray @10 ppm: visual rating” value [1] was 3 and the “Gas @ 10 ppm: visual rating” value [2] was 6.

With `Clc1ccc(SCCC2=CC2)cc1` [Compound 9, 1-(2-(4-Chlorophenylthio)ethyl)cyclopropene] the “Spray @10 ppm: visual rating” value [1] was 10 and the “Gas @ 10 ppm: visual rating” value [2] was 10.

With “1-(1-Methyl-2-pyrrolecarbonyloxypropyl)-cyclopropene [Compound 59]” the “Spray @10 ppm: visual rating” value [1] was 4 and the “Gas @ 10 ppm: visual rating” value [2] was 3.

`Clc1ccc(CCC2=CC2)cc1` [Compound 28] was tested, and the “Spray @10 ppm: visual rating” value [1] was 8 and the “Gas @ 10 ppm: visual rating” value [2] was 9.5.

`ClC1=C(c2ccccc2)C1(Cl)Cl` [Compound 41, 1-Phenyl-2,3,3-trichlorocyclopropene] was tested, and the “Spray @10 ppm: visual rating” value [1] was 0, the “Gas @ 10 ppm: visual rating” value [2] was 0 and the “Gas @ 1000 ppm: visual rating” value [2] was 2.

In the case of `O=C(OCCC1=CC1)c1ccoc1` [Compound 48], the “Gas @ 10 ppm: visual rating” value [2] is reported as 10.

In the case of `CC1=C([Si](C)(C)C)C1(C)C` [Compound 79, 1-Trimethylsilyl-2,3,3-trimethylcyclopropene], the “Gas @ 10 ppm: visual rating” value [2] is reported as 10.
